Literature values, collected in US6403086B1, “Administering extracts of morinda citrifolia, red wine, prune, blueberry, pomegranate, apple and an enzyme mixture” (priority 2001, dated 2002).

Details: supplementation with 30 IU to 100 IU

Q: For vitamin E, which “lower risk of heart disease” value is on record?
A: The value was 41%.
